In patent US10865203B2, “Ligands selective to alpha 6 subunit-containing GABAA receptors and their methods of use” (UWM Research Foundation, Inc., priority 2015, dated 2020):
In brackets after ≈: the same amount, converted by molar mass. Entries after “also recorded” stand apart in the source; their conditions may differ. Where two headings read alike, the source gives them in different places.

Experiments:
α1,4,6β3δ receptors = test: Electrophysiology in Xenopus oocytes, delta-containing receptors; assay type: cell-based, rat
Protocol: Mature female Xenopus laevis (Nasco, Fort Atkinson, Wis., USA) were anaesthetized in a bath of ice-cold 0.17% Tricain (Ethyl-m-aminobenzoat, Sigma-Aldrich, St. Louis, Mo., USA) before decapitation and transfer of the frog's ovary to ND96 medium (96 mM NaCl, 2 mM KCl, 1 mM MgCl2, 5 mM HEPES; pH 7.5). Following incubation in 1 mg/mL collagenase (Sigma-Aldrich, St. Louis, Mo., USA) for 30 min, stage 5 to 6 oocytes were singled out of the ovary and defolliculated using a platinum wire loop. Oocytes were stored and incubated at 18° C. in NDE medium (96 mM NaCl, 2 mM KCl, 1 mM MgCl2, 5 mM HEPES, 1.8 mM CaCl2; pH 7.5) that was supplemented with 100 U per mL-1 penicillin, 100 μg per mL-1 streptomycin and 2.5 mM pyruvate. Oocytes were injected with an aqueous solution of mRNA. A total of 2.5 ng of mRNA per oocyte was injected. Subunit ratio was 1:1:5 for αxβγ2 (x=1, 2, 3, 5) and 3:1:5 for α4/6β3γ2 and αβδ receptors. Injected oocytes were incubated for at least 36 h before electrophysiological recordings. Oocytes were placed on a nylon-grid in a bath of NDE medium. For current measurements, the oocytes were impaled with two microelectrodes (2-3MΩ), which were filled with 2 M KCl. The oocytes were constantly washed by a flow of 6 mL per min-1 NDE that could be switched to NDE containing GABA and/or drugs. […] All recordings were performed at room temperature at a holding potential of −60 mV using a Warner OC-725C TEV (Warner Instrument, Hamden, Conn., USA) or a Dagan CA-1B Oocyte Clamp or a Dagan TEV-200A TEV (Dagan Corporation, Mineapolis, Minn., USA). Data were digitized using a Digidata 1322A or 1550 data acquisition system (Axon Instruments, Union City, Calif., USA), recorded using Clampex 10.5 software (Molecular Devices, Sunnyvale, Calif., USA), and analyzed using Clampfit 10.5 and GraphPad Prism 6.0 (La Jolla, Calif., USA) software. Concentration-response data were fitted using the Hill equation. Data are given as mean±SEM from at least three oocytes of two batches.
For selected test compounds full dose response curves were recorded in α1-6β3γ2 receptors. For selected compounds, dose response curves in additional receptor subtypes (α1, 4, 6β3δ, α6β1, 2γ2, α1-6β3) were also obtained. For a wider panel of compounds, a two point screening pharmacology was obtained at 1 and 10 μM compound concentrations.

[1] = Solubility of compounds in DI water; assay type: physicochemical; conditions: thermodynamic from solid; 2 mg in 2 mL DI water, sonicated at 60° C. for 2 hours, cooled to room temperature, filtered
Protocol: The solubility of the compounds was examined by sonicating 2 mg of each respective compound in 2 mL of DI water at 60° C. for 2 hours. Solutions were cooled to room temperature and then filtered using a syringe filter. The resultant solutions were injected into a mass spectrometer using a SIM method, calibrated to the respective retention times and mass units of each compound. Calibration curves using standard solutions (5 data points) of each compound dissolved in methanol were used to calculate the unknown aqueous concentrations of each compound.

HEPG2 cell line = test: Cytotoxicity study, CellTiter-Glo cell viability; assay type: cell-based, Human; conditions: HEPG2, 48 hours incubation
Protocol: Reagents and Instrumentation: Human liver hepatocellular carcinoma (HEPG2) cell line was purchased (ATCC) and cultured in 75 cm2 flasks (CellStar). Cells were grown in DMEM/High Glucose (Hyclone, #SH3024301) media to which non-essential amino acids (Hyclone, #SH30238.01), 10 mM HEPES (Hyclone, #SH302237.01), 5×106 units of penicillin and streptomycin (Hyclone, #SV30010), and 10% of heat inactivated fetal bovine serum (Gibco, #10082147) were added. Cells were harvested using 0.05% Trypsin (Hyclone, #SH3023601), which disrupts the cell monolayer and proteolytically cleaves the bonds between the cells and flask. The cell viability assay was evaluated using CellTiter-Glo™ Luminescent Cell Viability Assay Kit (Promega, Madison, Wis.) which contains luciferase and all its substrate except ATP. The controls for the cytotoxicity assay used were (E)-10-(bromotriphenylphosphoranyl)decyl 4-(4-(tert-butyl)phenyl)-4-oxobut-2-enoate (400 μM in DMSO, positive control) and DMSO (negative control). Cell culture was performed in a Baker Company Class II Biological Safety Cabinet. All luminescence readings were performed on a Tecan Infinite M1000 plate reader. Small volume transfers were performed on the Tecan Freedom EVO liquid handling system with a 100 nL pin tool transfer (V&P Scientific). Serial dilutions were done in 96-well polypropylene plates (Corning, #3365) and assays were conducted in 384-well white optical bottom plates.
Luminescence-Based VDR-Mediated Transcription Assay Protocol: After 48 hours of incubation at 37 °C with 5% CO2, the cells were harvested with 4 mL of 0.05% Trypsin, added to 10 mL of the assay buffer, DMEM/High Modified buffer without phenol red, and spun down for 3 minutes at 1000 rpm. The media was removed and cells were resuspended in the DMEM assay media. To each well, 40 μL of cells were added to yield a final concentration of 15,000 cells per well. The plates were then spun down for 2 minutes at 1000 rpm. After 2 hours, plated cells were treated with 100 nL×4 of small molecules and controls which were added using the pin tool. After 48 hours of incubation at 37 °C with 5% CO2, 20 μL of Cell Titer-Glo™ Luminescence Assay Kit (cytotoxicity assay) were added and luminescence was read. Controls were measured within each plate to determine the z′ factor (Equation 1) and to enable data normalization. Three independent experiments were performed in quadruplicate and data was analyzed using nonlinear regression with variable slope (GraphPrism, Equation 2). The luminescence intensity of control (untreated) cells was taken as 100% viability, and the relative cell viability compared to control was calculated. Data are presented as the means±SEM of a series of three experiments.

## COc1cccc(-n2nc3c4cc(Cl)ccc4[nH]cc-3c2=O)c1 [LAU 159, 8-Chloro-2-(3-methoxyphenyl)-2,5-dihydro-3H-pyrazolo[4,3-c]quinolin-3-one]
α1,4,6β3δ receptors
  α6 preference among α1,4,6β3δ receptors: preferentially modulate the α6β3δ receptor; also recorded: α6 preference

## [2H]C([2H])([2H])Oc1ccc(-n2nc3c4ccc(OC)cc4[nH]cc-3c2=O)cc1 [DK-I-56-1, 7-Methoxy-2-(4-methoxy-d3-phenyl)-2,5-dihydro-3H-pyrazolo[4,3-c]quinolin-3-one]
[1]
  solubility at 2 h: 11.4 µg/mL (≈ 35.1 µM)
HEPG2 cell line
  toxicity at 400 μM: non-toxic

## COc1ccc(-n2nc3c4ccc(OC)cc4[nH]cc-3c2=O)cc1 [Compound 6, 7-Methoxy-2-(4-methoxyphenyl)-2,5-dihydro-3H-pyrazolo[4,3-c]quinolin-3-one]
α1,4,6β3δ receptors
  α6 preference among α1,4,6β3δ receptors: α6 preference
α1,4,6β3δ receptors; listed as compound 6
  α6 preference among α1,4,6β3δ receptors: preferentially modulate the α6β3δ receptor

## [2H]C([2H])([2H])Oc1ccc2c3nn(-c4ccc(OC)nc4)c(=O)c-3c[nH]c2c1 [DK-I-86-1, 7-Methoxy-d3-2-(6-methoxypyridin-3-yl)-2,5-dihydro-3H-pyrazolo[4,3-c]quinolin-3-one]
[1]
  solubility at 2 h: 211 µg/mL (≈ 649 µM)
HEPG2 cell line
  toxicity at 400 μM: non-toxic

## COc1ccc(-n2nc3c4ccc(Br)cc4[nH]cc-3c2=O)cc1 [LAU 463, 7-Bromo-2-(4-methoxyphenyl)-2,5-dihydro-3H-pyrazolo[4,3-c]quinolin-3-one]
α1,4,6β3δ receptors
  α6 preference among α1,4,6β3δ receptors: α6 preference
